The values that follow come from patent US8729017B2 (priority 2011, dated 2014).

Holding throughout (type): cell-based
The target of one experiment is T1, glucagon receptor (Homo sapiens, UniProt P47871).
T1 construct: expressed in transfected cells; host or cells: HEK293
Nature of the experiment: cAMP induction, firefly luciferase reporter assay in HEK293 cells co-transfected with the glucagon receptor. As to conditions: HEK293 cells, cAMP-responsive luciferase reporter, 5 hours incubation. The procedure: (§1) The ability of each peptide to induce cAMP was measured in a firefly luciferase-based reporter assay. […] At the end of the incubation, 100 μL of LucLite luminescence substrate reagent (Perkin Elmer, Wellesley, Mass.) were added to each well. […] In some instances, the in vitro agonist activity at the GIP receptor was also tested.

The target in another experiment is T2, GIP receptor (Homo sapiens, UniProt P48546).
T2 construct: expressed in transfected cells; host or cells: HEK293
T2 sequence (P48546 22-466): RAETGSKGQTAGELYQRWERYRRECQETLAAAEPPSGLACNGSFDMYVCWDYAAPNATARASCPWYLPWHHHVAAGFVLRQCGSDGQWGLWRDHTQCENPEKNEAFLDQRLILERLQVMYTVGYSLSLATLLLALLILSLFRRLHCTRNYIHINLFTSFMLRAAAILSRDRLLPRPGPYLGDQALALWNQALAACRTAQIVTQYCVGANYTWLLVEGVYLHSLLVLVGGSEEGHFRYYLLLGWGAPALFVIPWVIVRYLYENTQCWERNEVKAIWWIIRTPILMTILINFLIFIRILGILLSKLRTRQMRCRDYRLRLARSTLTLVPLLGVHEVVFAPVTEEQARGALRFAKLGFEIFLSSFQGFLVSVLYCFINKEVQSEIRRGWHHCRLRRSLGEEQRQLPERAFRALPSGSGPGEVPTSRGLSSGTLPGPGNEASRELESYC
Nature of the experiment: in vitro agonist activity at the GIP receptor (cAMP luciferase reporter, HEK293 cells). As to conditions: in vitro agonist activity; read-out: EC50 (nM) at GIP receptor. The procedure:
It is understood that a lower EC50 indicates higher activity or potency at the receptor. […] The ability of each peptide to induce cAMP was measured in a firefly luciferase-based reporter assay. […] At the end of the incubation, 100 μL of LucLite luminescence substrate reagent (Perkin Elmer, Wellesley, Mass.) were added to each well. […] In some instances, the in vitro agonist activity at the GIP receptor was also tested.

The next experiment deals with T3, GLP-1 receptor (Homo sapiens, UniProt P43220).
T3 construct: expressed in transfected cells; host or cells: HEK293
T3 sequence (P43220 24-463): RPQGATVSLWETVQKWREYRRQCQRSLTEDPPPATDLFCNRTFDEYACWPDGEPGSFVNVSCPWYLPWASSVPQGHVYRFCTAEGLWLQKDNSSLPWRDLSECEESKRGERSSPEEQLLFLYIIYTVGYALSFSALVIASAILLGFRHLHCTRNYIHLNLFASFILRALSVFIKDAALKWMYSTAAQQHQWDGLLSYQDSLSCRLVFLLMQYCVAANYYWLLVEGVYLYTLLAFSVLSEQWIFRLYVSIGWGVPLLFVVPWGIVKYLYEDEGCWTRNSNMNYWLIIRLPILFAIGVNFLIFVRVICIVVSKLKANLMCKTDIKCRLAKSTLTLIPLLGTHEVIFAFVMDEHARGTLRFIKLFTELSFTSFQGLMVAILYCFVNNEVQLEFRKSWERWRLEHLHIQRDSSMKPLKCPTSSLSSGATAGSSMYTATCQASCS
Nature of the experiment: cAMP induction, firefly luciferase reporter assay in HEK293 cells co-transfected with the GLP-1 receptor. The following applies: HEK293 cells, cAMP-responsive luciferase reporter, 5 hours incubation. The procedure: as §1

Numbered stars: 1 amine (or outer) side, 2 acyl side, 3 side chain; on linkers, the order of the positions; unused ones are H or OH. Square brackets hold non-standard residues; d marks the D form. Side chains are listed from the residue outwards. Peptide text beside a SMILES is read from it. * marks the point of attachment. γGlu = O=C(O)[C@H](CCC(=O)[*:2])N[*:1]; Palmitoyl = CCCCCCCCCCCCCCCC(=O)*; Aib = CC(C)(N)C(=O)O

T1 sequence (P47871 26-477, species assumed): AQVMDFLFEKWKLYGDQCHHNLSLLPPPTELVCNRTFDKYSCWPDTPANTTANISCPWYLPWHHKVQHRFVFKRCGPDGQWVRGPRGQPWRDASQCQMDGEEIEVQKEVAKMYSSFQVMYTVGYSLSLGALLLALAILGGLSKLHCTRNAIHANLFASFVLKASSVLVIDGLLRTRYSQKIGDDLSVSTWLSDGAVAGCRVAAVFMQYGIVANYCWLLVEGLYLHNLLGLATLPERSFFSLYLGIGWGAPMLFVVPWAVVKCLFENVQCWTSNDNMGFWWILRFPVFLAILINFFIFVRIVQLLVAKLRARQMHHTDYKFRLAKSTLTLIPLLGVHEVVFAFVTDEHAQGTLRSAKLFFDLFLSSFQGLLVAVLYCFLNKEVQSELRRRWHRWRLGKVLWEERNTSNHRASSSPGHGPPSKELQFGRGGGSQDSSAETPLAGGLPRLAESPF

`CCCCCCCCCCCCCCCC(=O)N[C@@H](CCC(=O)N[C@@H](CCC(=O)NCCCC[C@H](NC(=O)[C@H](CC(=O)O)NC(=O)[C@H](CO)NC(=O)[C@@H](NC(=O)[C@H](Cc1ccccc1)NC(=O)[C@@H](NC(=O)CNC(=O)[C@H](CCC(N)=O)NC(=O)C(C)(C)NC(=O)[C@@H](N)Cc1c[nH]cn1)[C@@H](C)O)[C@@H](C)O)C(=O)N[C@@H](CO)C(=O)N[C@@H](CCCCN)C(=O)N[C@@H](Cc1ccc(O)cc1)C(=O)N[C@@H](CC(C)C)C(=O)N[C@@H](CC(=O)O)C(=O)NC(C)(C)C(=O)N[C@@H](CCCNC(=N)N)C(=O)N[C@@H](C)C(=O)N[C@@H](C)C(=O)N[C@@H](CCC(N)=O)C(=O)N[C@@H](CC(=O)O)C(=O)N[C@@H](Cc1ccccc1)C(=O)N[C@H](C(=O)N[C@@H](CCC(N)=O)C(=O)N[C@@H](Cc1c[nH]c2ccccc12)C(=O)N[C@@H](CC(C)C)C(=O)N[C@@H](CCSC)C(=O)N[C@@H](CCCCN)C(=O)NCC(=O)N[C@@H](CCCNC(=N)N)C(=O)NCC(N)=O)C(C)C)C(=O)O)C(=O)O` [compound 23] (H-H[Aib]QGTFTSDK([γGlu-γGlu-Palmitoyl])SKYLD[Aib]RAAQDFVQWLMKGRG-NH2; N-terminus assumed): the EC50 on glucagon receptor is 0.023 nM; on GIP receptor it was 1.58 nM; on GLP-1 receptor it was 0.004 nM.
The matching figures for `CCCCCCCCCCCCCCCC(=O)N[C@@H](CCC(=O)N[C@@H](CCC(=O)NCCCC[C@H](NC(=O)[C@H](CC(=O)O)NC(=O)[C@H](CO)NC(=O)[C@@H](NC(=O)[C@H](Cc1ccccc1)NC(=O)[C@@H](NC(=O)CNC(=O)[C@H](CCC(N)=O)NC(=O)C(C)(C)NC(=O)[C@@H](N)Cc1c[nH]cn1)[C@@H](C)O)[C@@H](C)O)C(=O)N[C@@H](CO)C(=O)N[C@@H](CCCCN)C(=O)N[C@@H](Cc1ccc(O)cc1)C(=O)N[C@@H](CC(C)C)C(=O)N[C@@H](CC(=O)O)C(=O)NC(C)(C)C(=O)N[C@@H](CCCNC(=N)N)C(=O)N[C@@H](C)C(=O)N[C@@H](C)C(=O)N[C@@H](CCC(N)=O)C(=O)N[C@@H](CC(=O)O)C(=O)N[C@@H](Cc1ccccc1)C(=O)N[C@H](C(=O)N[C@@H](CCC(N)=O)C(=O)N[C@@H](Cc1c[nH]c2ccccc12)C(=O)N[C@@H](CC(C)C)C(=O)N[C@@H](CCSC)C(=O)N[C@@H](CC(=O)O)C(=O)NCC(=O)N[C@@H](CCCNC(=N)N)C(=O)NCC(N)=O)C(C)C)C(=O)O)C(=O)O` [compound 22] (H-H[Aib]QGTFTSDK([γGlu-γGlu-Palmitoyl])SKYLD[Aib]RAAQDFVQWLMDGRG-NH2; N-terminus assumed): 0.005 nM, 2.37 nM and 0.002 nM.
The matching figures for `CCCCCCCCCCCCCCCC(=O)N[C@@H](CCC(=O)N[C@@H](CCC(=O)NCCCC[C@H](NC(=O)[C@H](CC(=O)O)NC(=O)[C@H](CO)NC(=O)[C@@H](NC(=O)[C@H](Cc1ccccc1)NC(=O)[C@@H](NC(=O)CNC(=O)[C@H](CCC(N)=O)NC(=O)C(C)(C)NC(=O)[C@@H](N)Cc1c[nH]cn1)[C@@H](C)O)[C@@H](C)O)C(=O)N[C@@H](CO)C(=O)N[C@@H](CCCCN)C(=O)N[C@@H](Cc1ccc(O)cc1)C(=O)N[C@@H](CC(C)C)C(=O)N[C@@H](CC(=O)O)C(=O)NC(C)(C)C(=O)N[C@@H](CCCNC(=N)N)C(=O)N[C@@H](C)C(=O)N[C@@H](C)C(=O)N[C@@H](CCC(N)=O)C(=O)N[C@@H](CC(=O)O)C(=O)N[C@@H](Cc1ccccc1)C(=O)N[C@H](C(=O)N[C@@H](CCC(N)=O)C(=O)N[C@@H](Cc1c[nH]c2ccccc12)C(=O)N[C@@H](CC(C)C)C(=O)N[C@@H](CCSC)C(=O)N[C@@H](CCCCN)C(=O)N[C@H](C(=O)N[C@@H](CCCCN)C(=O)N[C@H](CCC(=O)O)C(=O)O)[C@@H](C)O)C(C)C)C(=O)O)C(=O)O` [compound 37] (H-H[Aib]QGTFTSDK([γGlu-γGlu-Palmitoyl])SKYLD[Aib]RAAQDFVQWLMKTK[dE]-OH; N-terminus assumed): 0.018 nM, 3.3 nM and 0.016 nM.
In the same order, the values of `CCCCCCCCCCCCCCCC(=O)N[C@@H](CCC(=O)N[C@@H](CCC(=O)NCCCC[C@H](NC(=O)[C@H](CC(=O)O)NC(=O)[C@H](CO)NC(=O)[C@@H](NC(=O)[C@H](Cc1ccccc1)NC(=O)[C@@H](NC(=O)CNC(=O)[C@H](CCC(N)=O)NC(=O)C(C)(C)NC(=O)[C@@H](N)Cc1c[nH]cn1)[C@@H](C)O)[C@@H](C)O)C(=O)N[C@@H](CO)C(=O)N[C@@H](CCCCN)C(=O)N[C@@H](Cc1ccc(O)cc1)C(=O)N[C@@H](CC(C)C)C(=O)N[C@@H](CC(=O)O)C(=O)NC(C)(C)C(=O)N[C@@H](CCCNC(=N)N)C(=O)N[C@@H](C)C(=O)N[C@@H](C)C(=O)N[C@@H](CCC(N)=O)C(=O)N[C@@H](CC(=O)O)C(=O)N[C@@H](Cc1ccccc1)C(=O)N[C@H](C(=O)N[C@@H](CCC(N)=O)C(=O)N[C@@H](Cc1c[nH]c2ccccc12)C(=O)N[C@@H](CC(C)C)C(=O)N[C@@H](CCCCN)C(=O)N[C@@H](CC(=O)O)C(=O)NCC(=O)N[C@@H](CCCNC(=N)N)C(=O)N1CCC[C@H]1C(N)=O)C(C)C)C(=O)O)C(=O)O` [compound 25] (H-H[Aib]QGTFTSDK([γGlu-γGlu-Palmitoyl])SKYLD[Aib]RAAQDFVQWLKDGRP-NH2) are 0.035 nM, 2.36 nM and 0.003 nM.
As to `CCCCCCCCCCCCCCCC(=O)N[C@@H](CCC(=O)N[C@@H](CCC(=O)NCCCC[C@H](NC(=O)[C@H](CC(=O)O)NC(=O)[C@H](CO)NC(=O)[C@@H](NC(=O)[C@H](Cc1ccccc1)NC(=O)[C@@H](NC(=O)CNC(=O)[C@H](CCC(N)=O)NC(=O)C(C)(C)NC(=O)[C@@H](N)Cc1c[nH]cn1)[C@@H](C)O)[C@@H](C)O)C(=O)N[C@@H](CO)C(=O)N[C@@H](CCCCN)C(=O)N[C@@H](Cc1ccc(O)cc1)C(=O)N[C@@H](CC(C)C)C(=O)N[C@@H](CC(=O)O)C(=O)NC(C)(C)C(=O)N[C@@H](CCCNC(=N)N)C(=O)N[C@@H](C)C(=O)N[C@@H](C)C(=O)N[C@@H](CCC(N)=O)C(=O)N[C@@H](CC(=O)O)C(=O)N[C@@H](Cc1ccccc1)C(=O)N[C@H](C(=O)N[C@@H](CCC(N)=O)C(=O)N[C@@H](Cc1c[nH]c2ccccc12)C(=O)N[C@@H](CC(C)C)C(=O)N[C@@H](CCSC)C(=O)N[C@@H](CCCCN)C(=O)NCC(=O)N[C@@H](CCCNC(=N)N)C(=O)NCC(=O)O)C(C)C)C(=O)O)C(=O)O` [compound 31] (H-H[Aib]QGTFTSDK([γGlu-γGlu-Palmitoyl])SKYLD[Aib]RAAQDFVQWLMKGRG-OH; N-terminus assumed), the EC50 stood at 0.016 nM at glucagon receptor, 2.34 nM at GIP receptor and 0.007 nM at GLP-1 receptor.
In the same order, the values of `CCCCCCCCCCCCCCCC(=O)N[C@@H](CCC(=O)N[C@@H](CCC(=O)NCCCC[C@H](NC(=O)[C@H](CC(=O)O)NC(=O)[C@H](CO)NC(=O)[C@@H](NC(=O)[C@H](Cc1ccccc1)NC(=O)[C@@H](NC(=O)CNC(=O)[C@H](CCC(N)=O)NC(=O)C(C)(C)NC(=O)[C@@H](N)Cc1c[nH]cn1)[C@@H](C)O)[C@@H](C)O)C(=O)N[C@@H](CO)C(=O)N[C@@H](CCCCN)C(=O)N[C@@H](Cc1ccc(O)cc1)C(=O)N[C@@H](CC(C)C)C(=O)N[C@@H](CC(=O)O)C(=O)N[C@@H](CCC(=O)O)C(=O)N[C@@H](CCCNC(=N)N)C(=O)N[C@@H](C)C(=O)N[C@@H](C)C(=O)N[C@@H](CCC(N)=O)C(=O)N[C@@H](CC(=O)O)C(=O)N[C@@H](Cc1ccccc1)C(=O)N[C@H](C(=O)N[C@@H](CCC(N)=O)C(=O)N[C@@H](Cc1c[nH]c2ccccc12)C(=O)N[C@@H](CC(C)C)C(=O)N[C@@H](CCSC)C(=O)N[C@@H](CC(=O)O)C(=O)N[C@H](C(N)=O)[C@@H](C)O)C(C)C)C(=O)O)C(=O)O` [compound 61] are 0.009 nM, 0.676 nM and 0.004 nM.
